In patent publication US11554171B2, “Compounds and methods for the targeted degradation of bromodomain-containing proteins” (Arvinas Operations, Inc., priority 2015, dated 2023) one finds Emax and DC50 data, which are given here for 23 compounds.

A word on the DC50: it is the concentration at which degradation of the target reaches its halfway point.

In this assay the test system is c-myc in 22RV-1 cells. Briefly: Human c-myc ELISA assay. The class given is cell-based. The settings on record: Homo sapiens; for Emax: 22Rv1, 18 h, read-out: Degradation of BRD4: Maximum inhibition (%) c-Myc ELISA in 22RV1 cells; for DC50: 22Rv1, read-out: Degradation of BRD4: DC50 (uM) c-Myc ELISA in 22RV1 cells. In short, it runs like this: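 c-myc levels measured by ELISA in RIPA lysates of 22RV-1 cells, calibrated with a 333-0 pg/ml standard curve. Lysates came from cells exposed for 18 h to an 8-point, 1:3 dose series starting at 300 nM or 1 μM final in 0.1% DMSO. Suppression potency given as DC50.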
In general terms: An ELISA detects its analyte on a solid surface through an enzyme-linked reagent.

`Cc1sc2c(c1C)C(c1ccc(Cl)cc1)=N[C@@H](CC(=O)N[C@H]1C[C@H](Oc3ccc(CC(=O)N[C@H](C(=O)N4C[C@H](O)C[C@H]4C(=O)N[C@@H](C)c4ccc(-c5ncon5)cc4)C(C)(C)C)cc3)C1)c1nnc(C)n1-2` [Example 281]: the Emax is 91.4% and the 50% degradation concentration (DC50) lay within 0.01 to 0.1 µM.
With `Cc1sc2c(c1C)C(c1ccc(Cl)cc1)=N[C@@H](CC(=O)N[C@H]1C[C@@H](Oc3cccc(-c4cnn([C@@H](C(=O)N5C[C@H](O)C[C@H]5C(=O)N[C@@H](C)c5ccc(-n6ccnc6C)cc5)C(C)C)c4)c3)C1)c1nnc(C)n1-2` [Example 298], the Emax was 25.5% and the half-maximal degradation concentration (DC50) was above 1 µM.
Take `Cc1ncsc1-c1ccc(CNC(=O)[C@@H]2C[C@@H](O)CN2C(=O)[C@@H](NC(=O)COCCn2ccc(-c3ccc([C@@H](C)NC(=O)C[C@@H]4N=C(c5ccc(Cl)cc5)c5c(sc(C)c5C)-n5c(C)nnc54)cc3)cc2=O)C(C)(C)C)cc1` [Example 35]: the Emax stood at 37% and the DC50 is above 1 µM.
In the case of `Cc1ncsc1-c1ccc([C@H](C)NC(=O)[C@@H]2C[C@@H](O)CN2C(=O)[C@@H](NC(=O)COCCCOCCCCOc2ccc3c(c2)c2c(C(N)=O)cc(-c4c(C)noc4C)cc2n3Cc2ccccc2)C(C)(C)C)cc1` [Example 166], the Emax came to 97% and the DC50 is below 0.01 µM.
As for `Cc1ncoc1-c1ccc(CNC(=O)[C@@H]2C[C@@H](O)CN2C(=O)[C@@H](NC(=O)COCCOCCCOc2ccc([C@@H](C)NC(=O)C[C@@H]3N=C(c4ccc(Cl)cc4)c4c(sc(C)c4C)-n4c(C)nnc43)cc2)C(C)(C)C)cc1` [Example 31], the Emax was 65% and the DC50 was 0.1 to 1 µM.
Regarding `Cc1ncsc1-c1ccc(CNC(=O)[C@@H]2C[C@@H](O)CN2C(=O)[C@@H](NC(=O)COCCCCCCNC(=O)C[C@@H]2N=C(c3ccc(Cl)cc3)c3c(sc(C)c3C)-n3c(C)nnc32)C(C)(C)C)cc1` [Example 82], the Emax is 100% and the DC50 was 0.01 to 0.1 µM.
For `Cc1ncsc1-c1ccc(CNC(=O)[C@@H]2C[C@@H](O)CN2C(=O)[C@H](c2cc(OCCC(F)(F)CCNC(=O)C[C@@H]3N=C(c4ccc(Cl)cc4)c4c(sc(C)c4C)-n4c(C)nnc43)no2)C(C)C)cc1` [Example 296, (2S,4R)-1-[(2S)-2-{3-[(5-{2-[(9S)-7-(4-chlorophenyl)-4,5,13-trimethyl-3-thia-1,8,11,12-tetraazatricyclo[8.3.0.0^2,^6]trideca-2(6),4,7,10,12-pentaen-9-yl]acetamido}-3,3-difluoropentyl)oxy]-1,2-oxazol-5-yl}-3-methylbutanoyl]-4-hydroxy-N-{[4-(4-methyl-1,3-thiazol-5-yl)phenyl]methyl}pyrrolidine-2-carboxamide], the Emax was found to be 71.4% and the DC50 lay within 0.1 to 1 µM.
Take `Cc1ncsc1-c1ccc(CNC(=O)[C@@H]2C[C@@H](O)CN2C(=O)[C@@H](NC(=O)COCCOCCOCCOCCOCCOCCNC(=O)C[C@@H]2N=C(c3ccc(Cl)cc3)c3c(sc(C)c3C)-n3c(C)nnc32)C(C)(C)C)cc1` [Example 4, (2S,4R)-1-[(2S)-2-(20-{2-[(9S)-7-(4-chlorophenyl)-4,5,13-trimethyl-3-thia-1,8,11,12-tetraazatricyclo[8.3.0.0^2,^6]trideca-2(6),4,7,10,12-pentaen-9-yl]acetamido}-3,6,9,12,15,18-hexaoxaicosanamido)-3,3-dimethylbutanoyl]-4-hydroxy-N-{[4-(4-methyl-1,3-thiazol-5-yl)phenyl]methyl}-pyrrolidine-2-carboxamide]: the Emax was 62.2% and the half-maximal degradation concentration (DC50) was 0.1 to 1 µM.
`Cc1ncsc1-c1ccc([C@H](C)NC(=O)[C@@H]2C[C@@H](O)CN2C(=O)[C@H](C(C)C)n2cc(-c3cc(F)cc(O[C@H]4C[C@@H](NC(=O)C[C@@H]5N=C(c6ccc(Cl)cc6)c6c(sc(C)c6C)-n6c(C)nnc65)C4)c3)cn2)cc1` [Example 252]: the Emax was found to be 97.5% and the DC50 is below 0.01 µM.
For `Cc1ncsc1-c1ccc([C@H](C)NC(=O)[C@@H]2C[C@@H](O)CN2C(=O)[C@@H](C(C)C)n2cc(-c3cccc(O[C@H]4C[C@@H](NC(=O)C[C@@H]5N=C(c6ccc(Cl)cc6)c6c(sc(C)c6C)-n6c(C)nnc65)C4)c3)cn2)cc1` [Example 241], the Emax turned out to be 49.8% and the DC50 is above 1 µM.
The corresponding values for `Cc1ncsc1-c1ccc([C@H](C)NC(=O)[C@@H]2C[C@@H](O)CN2C(=O)[C@@H](NC(=O)Cc2ccc(O[C@H]3C[C@H](NC(=O)C[C@@H]4N=C(c5ccc(Cl)cc5)c5c(sc(C)c5C)-n5c(C)nnc54)C3)cc2)C(C)C)cc1` [Example 280] are 95.4% and 0.01 to 0.1 µM.
As to `Cc1ncsc1-c1ccc(CNC(=O)[C@@H]2C[C@@H](O)CN2C(=O)[C@@H](NC(=O)Cc2ccc(OCCNC(=O)C[C@@H]3N=C(c4ccc(Cl)cc4)c4c(sc(C)c4C)-n4c(C)nnc43)cn2)C(C)(C)C)cc1` [Example 92], the Emax worked out at 91.1% and the DC50 was 0.1 to 1 µM.
For `Cc1ncsc1-c1ccc([C@H](C)NC(=O)[C@@H]2C[C@@H](O)CN2C(=O)[C@@H](NC(=O)c2cc3ccc(O[C@@H](C)CNC(=O)C[C@@H]4N=C(c5ccc(Cl)cc5)c5c(sc(C)c5C)-n5c(C)nnc54)cc3o2)C(C)(C)C)cc1` [Example 221, (2S,4R)-1-[(2S)-2-[(6-{[(2S)-1-{2-[(9S)-7-(4-chlorophenyl)-4,5,13-trimethyl-3-thia-1,8,11,12-tetraazatricyclo[8.3.0.0^2,^6]trideca-2(6),4,7,10,12-pentaen-9-yl]acetamido}propan-2-yl]oxy}-1-benzofuran-2-yl)formamido]-3,3-dimethylbutanoyl]-4-hydroxy-N-[(1S)-1-[4-(4-methyl-1,3-thiazol-5-yl)phenyl]ethyl]pyrrolidine-2-carboxamide], in that order: 100% and below 0.01 µM.
With `Cc1ncsc1-c1ccc(CNC(=O)[C@@H]2C[C@@H](O)CN2C(=O)[C@@H](NC(=O)COCCc2cccc(CNC(=O)C[C@@H]3N=C(c4ccc(Cl)cc4)c4c(sc(C)c4C)-n4c(C)nnc43)c2)C(C)(C)C)cc1` [Example 69], the Emax worked out at 93.4% and the half-maximal degradation concentration (DC50) lay within 0.01 to 0.1 µM.
Regarding `Cc1ncsc1-c1ccc([C@H](C)NC(=O)[C@@H]2C[C@@H](O)CN2C(=O)[C@@H](NC(=O)CCc2ccnc(O[C@H]3C[C@H](NC(=O)C[C@@H]4N=C(c5ccc(Cl)cc5)c5c(sc(C)c5C)-n5c(C)nnc54)C3)c2)C(C)(C)C)cc1` [Example 192], the Emax came to 93% and the DC50 was below 0.01 µM.
As for `Cc1ncsc1-c1ccc(CNC(=O)[C@@H]2C[C@@H](O)CN2C(=O)[C@@H](NC(=O)COCCCOCCNC(=O)C[C@@H]2N=C(c3ccc(Cl)cc3)c3c(sc(C)c3C)-n3c(C)nnc32)C(C)(C)C)cc1` [Example 49, (2S,4R)-1-[(2S)-2-{2-[3-(2-{2-[(9S)-7-(4-chlorophenyl)-4,5,13-trimethyl-3-thia-1,8,11,12-tetraazatricyclo[8.3.0.0^2,^6]trdeca-2(6),4,7,10,12-pentaen-9-yl]acetamido}ethoxy)propoxy]acetamido}-3,3-dimethylbutanoyl]-4-hydroxy-N-{[4-(4-methyl-1,3-thiazol-5-yl)phenyl]methyl}pyrrolidine-2-carboxamide], the Emax was found to be 99% and the DC50 was below 0.01 µM.
As for `Cc1ncsc1-c1ccc([C@H](C)NC(=O)[C@@H]2C[C@@H](O)CN2C(=O)C(C(C)C)n2cc(-c3cc(F)cc(O[C@@H](C)CNC(=O)C[C@@H]4N=C(c5ccc(Cl)cc5)c5c(sc(C)c5C)-n5c(C)nnc54)c3)cn2)cc1` (stereo partly shown) [Example 208], the Emax came out at 92% and the DC50 was below 0.01 µM.
`Cc1ncsc1-c1ccc(CNC(=O)[C@@H]2C[C@@H](O)CN2C(=O)[C@@H](c2cc(OCCN3CC[C@@H](NC(=O)C[C@@H]4N=C(c5ccc(Cl)cc5)c5c(sc(C)c5C)-n5c(C)nnc54)C3)no2)C(C)C)cc1` (single isomer, unassigned) [Example 312]: the Emax came out at 87.5% and the DC50 is below 0.01 µM.
For the compound `Cc1sc2c(c1C)C(c1ccc(Cl)cc1)=N[C@@H](CC(=O)N[C@H]1C[C@H](Oc3ccc(CC(=O)N[C@H](C(=O)N4C[C@H](O)C[C@H]4C(=O)N[C@H](C)c4ccc(S(C)(=O)=O)cc4)C(C)(C)C)cc3)C1)c1nnc(C)n1-2` [Example 308], the Emax stood at 21% and the DC50 was above 1 µM.
With `Cc1ncsc1-c1ccc([C@H](C)NC(=O)[C@H]2C[C@H](O)CN2C(=O)[C@@H](NC(=O)COCCCOCCNC(=O)C[C@@H]2N=C(c3ccc(Cl)cc3)c3c(sc(C)c3C)-n3c(C)nnc32)C(C)(C)C)cc1` [Example 72, (2R, 4S)-1-[(2S)-2-{2-[3-(2-{2-[(9S)-7-(4-chlorophenyl)-4,5,13-trimethyl-3-thia-1,8,11,12-tetraazatricyclo[8.3.0.0^2,^6]trideca-2(6),4,7,10,12-pentaen-9-yl]acetamido}ethoxy)propoxy]acetamido}-3,3-dimethylbutanoyl]-4-hydroxy-N-[(1S)-1-[4-(4-methyl-1,3-thiazol-5-yl)phenyl]ethyl]pyrrolidine-2-carboxamide], the Emax was found to be 10.2% and the DC50 was above 1 µM.
For `Cc1ncsc1-c1ccc(CNC(=O)[C@@H]2C[C@@H](O)CN2C(=O)[C@@H](NC(=O)COCCN2CCC(c3ccc([C@@H](C)NC(=O)C[C@@H]4N=C(c5ccc(Cl)cc5)c5c(sc(C)c5C)-n5c(C)nnc54)cc3)CC2)C(C)(C)C)cc1` [Example 57], the Emax came out at 94% and the DC50 was in the range of 0.1 to 1 µM.
As to `Cc1ncsc1-c1ccc(CNC(=O)[C@@H]2C[C@@H](O)CN2C(=O)[C@@H](NC(=O)COCCCOCCCNC(=O)C[C@@H]2N=C(c3ccc(Cl)cc3)c3c(sc(C)c3C)-n3c(C)nnc32)C(C)(C)C)cc1` [Example 46], the Emax turned out to be 100% and the DC50 fell in the range of 0.01 to 0.1 µM.
With `Cc1ncsc1-c1ccc(CNC(=O)[C@@H]2C[C@@H](O)CN2C(=O)[C@@H](NC(=O)COCCCOCCCOc2ccc(NC(=O)C[C@@H]3N=C(c4ccc(Cl)cc4)c4c(sc(C)c4C)-n4c(C)nnc43)nc2)C(C)(C)C)cc1` [Example 28], the Emax was 100% and the DC50 is 0.01 to 0.1 µM.
